Assay results published in ChEMBL document CHEMBL1201862, “PubChem BioAssay data set” (2004).
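Assay format: 96-well plates, 48-hour exposure. GI50 = concentration required for 50% inhibition of growth.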 Active and inactive are the calls of the source. Cut-off read from the data, not from the text of the source: active = GI50 up to about 1.1 µM and inactive = higher.

Columns and labels:
Assay in all cases: growth of human tumour cells (NCI), 48 h
SNB-75 = test system: SNB-75
TK-10 = test system: TK-10
UACC-257 = test system: UACC-257
RPMI-8226 = test system: RPMI-8226
OVCAR-3 = test system: OVCAR-3
SR = test system: SR
SF-539 = test system: SF-539
K562 = test system: K562
CAKI-1 = test system: CAKI-1
PC-3 = test system: PC-3
HL-60 = test system: HL-60
SK-OV-3 = test system: SK-OV-3
M14 = test system: M14
RXF 393 = test system: RXF 393
SNB-19 = test system: SNB-19
OVCAR-4 = test system: OVCAR-4
SK-MEL-28 = test system: SK-MEL-28
LOX IMVI = test system: LOX IMVI
ACHN = test system: ACHN
NCI-H226 = test system: NCI-H226

Compound	GI50 (SNB-75)	GI50 (TK-10)	GI50 (UACC-257)	GI50 (RPMI-8226)	GI50 (OVCAR-3)	GI50 (SR)	GI50 (SF-539)	GI50 (K562)	GI50 (CAKI-1)	GI50 (PC-3)	GI50 (HL-60)	GI50 (SK-OV-3)	GI50 (M14)	GI50 (RXF 393)	GI50 (SNB-19)	GI50 (OVCAR-4)	GI50 (SK-MEL-28)	GI50 (LOX IMVI)	GI50 (ACHN)	GI50 (NCI-H226)
Cc1ccc(C2NC(=N)NC3=C2CCOc2c3ccc3ccccc23)cc1 (configuration not stated)	5.21 µM (inactive)	29.4 µM (inactive)	31.3 µM (inactive)	4.42 µM (inactive)	4.92 µM (inactive)	0.466 µM (active)	1.57 µM (inactive)	2.19 µM (inactive)	3.66 µM (inactive)	21.9 µM (inactive)	2.96 µM (inactive)	42 µM (inactive)	1.76 µM (inactive)	31.8 µM (inactive)	29.6 µM (inactive)	9.38 µM (inactive)	5.55 µM (inactive)	–	–	–
CC(=O)Oc1ccc2cc(Oc3ccccc3)c(=O)oc2c1	90.6 µM (inactive)	64.6 µM (inactive)	> 100 µM (inactive)	> 100 µM (inactive)	46 µM (inactive)	> 100 µM (inactive)	> 100 µM (inactive)	–	> 100 µM (inactive)	> 100 µM (inactive)	> 100 µM (inactive)	–	> 100 µM (inactive)	> 100 µM (inactive)	93.5 µM (inactive)	76.9 µM (inactive)	> 100 µM (inactive)	58.2 µM (inactive)	> 100 µM (inactive)	> 100 µM (inactive)
Cc1ccc(/C=N\NC(=O)c2ccncc2)s1	–	> 100 µM (inactive)	> 100 µM (inactive)	> 100 µM (inactive)	> 100 µM (inactive)	> 100 µM (inactive)	> 100 µM (inactive)	> 100 µM (inactive)	> 100 µM (inactive)	> 100 µM (inactive)	> 100 µM (inactive)	> 100 µM (inactive)	> 100 µM (inactive)	> 100 µM (inactive)	> 100 µM (inactive)	> 100 µM (inactive)	> 100 µM (inactive)	–	> 100 µM (inactive)	> 100 µM (inactive)
Cc1cc(C#N)c[n+](C)c1	> 100 µM (inactive)	> 100 µM (inactive)	> 100 µM (inactive)	–	> 100 µM (inactive)	> 100 µM (inactive)	> 100 µM (inactive)	> 100 µM (inactive)	> 100 µM (inactive)	> 100 µM (inactive)	> 100 µM (inactive)	> 100 µM (inactive)	> 100 µM (inactive)	> 100 µM (inactive)	> 100 µM (inactive)	> 100 µM (inactive)	> 100 µM (inactive)	–	> 100 µM (inactive)	> 100 µM (inactive)
O=C1CSC(=S)N1c1ccco1	–	> 100 µM (inactive)	> 100 µM (inactive)	59.3 µM (inactive)	77.8 µM (inactive)	> 100 µM (inactive)	66.7 µM (inactive)	> 100 µM (inactive)	> 100 µM (inactive)	71.3 µM (inactive)	32.6 µM (inactive)	> 100 µM (inactive)	44.2 µM (inactive)	> 100 µM (inactive)	> 100 µM (inactive)	> 100 µM (inactive)	> 100 µM (inactive)	79.6 µM (inactive)	> 100 µM (inactive)	> 100 µM (inactive)
Cc1ccc(C)c(N2C(=O)C(=O)c3c(C)ccc(C)c32)c1	34.9 µM (inactive)	28.8 µM (inactive)	24 µM (inactive)	–	16.3 µM (inactive)	15.4 µM (inactive)	16.7 µM (inactive)	22 µM (inactive)	25.5 µM (inactive)	23 µM (inactive)	35.6 µM (inactive)	47.9 µM (inactive)	17.1 µM (inactive)	49.7 µM (inactive)	40.6 µM (inactive)	18.8 µM (inactive)	33.5 µM (inactive)	17.4 µM (inactive)	17.1 µM (inactive)	27.7 µM (inactive)
CC(C)C1=CC23CCC4C(C)(C(=O)O)CCCC4(C)C2CC1C1C(=O)N(c2cccc(N4C(=O)C5C6CC7C8(C)CCCC(C)(C(=O)O)C8CCC7(C=C6C(C)C)C5C4=O)c2)C(=O)C13 (configuration not stated)	–	15.9 µM (inactive)	–	9.35 µM (inactive)	13.1 µM (inactive)	9.55 µM (inactive)	9.08 µM (inactive)	7.87 µM (inactive)	–	4.66 µM (inactive)	9.79 µM (inactive)	–	11.6 µM (inactive)	12.6 µM (inactive)	3.02 µM (inactive)	24 µM (inactive)	9.35 µM (inactive)	–	13.4 µM (inactive)	16.6 µM (inactive)
C/C(=N\NC(=O)c1ccncc1)c1ccccc1F	> 10 µM (inactive)	> 10 µM (inactive)	–	> 10 µM (inactive)	> 10 µM (inactive)	> 10 µM (inactive)	> 10 µM (inactive)	> 10 µM (inactive)	> 10 µM (inactive)	> 10 µM (inactive)	> 10 µM (inactive)	> 10 µM (inactive)	> 10 µM (inactive)	> 10 µM (inactive)	> 10 µM (inactive)	–	> 10 µM (inactive)	> 10 µM (inactive)	> 10 µM (inactive)	> 10 µM (inactive)
